One test has as its system hypothalamic slices. As to conditions: hypothalamic slices in vitro; cited from earlier work.
The next test addresses T1, Y1R (Homo sapiens, UniProt P25929).
T1 sequence (P25929 1-384): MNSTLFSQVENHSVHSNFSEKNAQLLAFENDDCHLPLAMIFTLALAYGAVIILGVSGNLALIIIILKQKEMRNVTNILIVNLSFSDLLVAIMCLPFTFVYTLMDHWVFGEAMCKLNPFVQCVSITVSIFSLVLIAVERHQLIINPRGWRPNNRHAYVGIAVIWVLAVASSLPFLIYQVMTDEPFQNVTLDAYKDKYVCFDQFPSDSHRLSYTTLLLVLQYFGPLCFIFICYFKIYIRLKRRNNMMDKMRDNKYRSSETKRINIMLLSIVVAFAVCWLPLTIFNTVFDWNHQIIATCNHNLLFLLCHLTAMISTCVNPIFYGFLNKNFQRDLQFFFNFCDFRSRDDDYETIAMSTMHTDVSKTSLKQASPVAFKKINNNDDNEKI
Put plainly: CaFlux Assay (FLIPR), Y1R. The format is cell-based.

In a further test the target is Y4R (Homo sapiens, UniProt P50391). Put plainly: CaFlux Assay (FLIPR), Y4R. The format is cell-based.
Sequence of Y4R (P50391 whole entry): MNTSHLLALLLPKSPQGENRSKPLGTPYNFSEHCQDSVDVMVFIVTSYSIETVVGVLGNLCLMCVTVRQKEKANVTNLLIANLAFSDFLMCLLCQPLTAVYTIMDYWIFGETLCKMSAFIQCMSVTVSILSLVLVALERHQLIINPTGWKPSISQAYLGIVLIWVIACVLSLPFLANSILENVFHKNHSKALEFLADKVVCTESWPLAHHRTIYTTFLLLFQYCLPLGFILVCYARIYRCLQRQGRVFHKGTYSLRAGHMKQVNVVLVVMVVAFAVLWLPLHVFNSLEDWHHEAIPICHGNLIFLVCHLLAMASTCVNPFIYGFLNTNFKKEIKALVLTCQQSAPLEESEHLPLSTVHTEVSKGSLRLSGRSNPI
A further test deals with T2, Y5R (Homo sapiens, UniProt Q15761).
T2 sequence (Q15761 1-445): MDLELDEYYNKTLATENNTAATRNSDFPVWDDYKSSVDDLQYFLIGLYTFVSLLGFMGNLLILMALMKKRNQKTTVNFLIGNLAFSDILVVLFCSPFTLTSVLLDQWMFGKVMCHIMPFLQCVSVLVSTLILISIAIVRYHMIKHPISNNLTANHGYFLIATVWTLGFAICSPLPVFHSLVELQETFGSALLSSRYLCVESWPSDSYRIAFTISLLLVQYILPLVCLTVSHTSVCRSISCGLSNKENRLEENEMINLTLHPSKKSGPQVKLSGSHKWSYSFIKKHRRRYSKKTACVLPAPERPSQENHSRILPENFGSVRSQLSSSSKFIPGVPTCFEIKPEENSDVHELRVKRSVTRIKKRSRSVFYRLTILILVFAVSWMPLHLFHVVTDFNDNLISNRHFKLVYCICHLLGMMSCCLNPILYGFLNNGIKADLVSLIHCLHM
Put plainly: CaFlux Assay (FLIPR), Y5R. It is filed as cell-based.

Test [1] deals with T3, hNPY2R (Homo sapiens, UniProt P49146).
T3 sequence (P49146 1-381): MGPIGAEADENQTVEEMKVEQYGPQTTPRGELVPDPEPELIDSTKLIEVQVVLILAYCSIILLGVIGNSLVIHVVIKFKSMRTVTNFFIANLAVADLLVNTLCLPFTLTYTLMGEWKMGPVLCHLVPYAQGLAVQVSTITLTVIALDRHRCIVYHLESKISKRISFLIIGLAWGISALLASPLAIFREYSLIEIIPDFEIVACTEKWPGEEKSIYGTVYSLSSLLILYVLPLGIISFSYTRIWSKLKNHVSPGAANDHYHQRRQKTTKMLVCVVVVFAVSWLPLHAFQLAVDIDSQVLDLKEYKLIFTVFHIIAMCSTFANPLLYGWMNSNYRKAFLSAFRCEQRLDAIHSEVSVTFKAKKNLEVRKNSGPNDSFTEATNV
Put plainly: cAMP Agonist Assay, HEK293/hNPY2R. It is filed as cell-based. More on the design: expressed in transfected cells; host or cells: HEK293/hNPY2R (G418 selection). The method, boiled down: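 Intracellular cAMP quantified by luminescent competitive ELISA after a 30 min room-temperature treatment of overnight-plated HEK293/hNPY2R cells with compound in medium containing 5 μM forskolin, 0.5 mM IBMX and 1.1% DMSO; four replicates per concentration.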

The target in test [2] is T3, hNPY2R. Put plainly: CaFlux Assay (FLIPR), Y2R. The format is cell-based. The arrangement: expressed in transfected cells; host or cells: HEK-293 stably transfected with G protein chimera Gαqi9. Summed up: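 HEK-293 cells stably expressing Gαqi9 and the human receptor, dye-loaded 1 h at 37° C, then compound added on FLIPR. Fluorescence read every 1.5 s for 100 s; peak increase over pre-stimulation baseline, expressed as % of positive-control maximal response.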

Bounds are passed on as bounds.

As for `N=C(N)NCCC[C@H](NC(=O)CC1(CC(=O)N2CCN(C3c4ccccc4NC(=O)c4ccccc43)CC2)CCCC1)C(=O)NCCn1c(=O)n(-c2ccccc2)n(-c2ccccc2)c1=O` (stereo partly drawn) [BIIE0246], in the test on hypothalamic slices, the NPY release entry is on record as “increases NPY release”.
On to `CCCCCCCCCCCCCCCCCCCC(=O)N[C@@H](CCC(=O)N[C@@H](CCC(=O)N[C@H](C(=O)N[C@@H](CCCCNC(=O)CCOCCOCCOCCOCCOCCOCCOCCOCCOCCOCCOCCOC)C(=O)N1CCN(c2ccc3ncn(CC(=O)N[C@@H](CCCNC(=N)N)C(=O)N[C@@H](Cc4c[nH]cn4)C(=O)N[C@@H](Cc4ccc(O)cc4)C(=O)N[C@@H](CC(C)C)C(=O)N[C@@H](CC(N)=O)C(=O)N[C@@H](Cc4c[nH]c5ccccc45)C(=O)N[C@H](C(=O)N[C@H](C(=O)N[C@@H](CCCNC(=N)N)C(=O)N[C@@H](CCC(N)=O)C(=O)N(C)[C@@H](CCCNC(=N)N)C(=O)N[C@@H](Cc4ccc(O)cc4)C(N)=O)[C@@H](C)O)C(C)C)c(=O)c3c2)CC1)[C@@H](C)CC)C(=O)O)C(=O)O` [Example 58], for which the concentration giving a half-maximal response (EC50) was > 9000 nM on Y1R; > 9000 nM on Y4R; 4180 nM at Y5R; 0.21 nM on hNPY2R [1]; 0.114 nM on hNPY2R [2].
As to `CCCCCCCCCCCCCCCCCCCC(=O)N[C@@H](CCC(=O)N[C@@H](CCC(=O)N[C@H](C(=O)N[C@@H](CCCCNC(=O)CCOCCOCCOCCOCCOCCOCCOCCOCCOCCOCCOCCOCCOCCOCCOCCOC)C(=O)N1CCN(c2ccc3ncn(CC(=O)N[C@@H](CCCNC(=N)N)C(=O)N[C@@H](Cc4c[nH]cn4)C(=O)N[C@@H](Cc4ccc(O)cc4)C(=O)N[C@@H](CC(C)C)C(=O)N[C@@H](CC(N)=O)C(=O)N[C@@H](Cc4c[nH]c5ccccc45)C(=O)N[C@H](C(=O)N[C@H](C(=O)N[C@@H](CCCNC(=N)N)C(=O)N[C@@H](CCC(N)=O)C(=O)N(C)[C@@H](CCCNC(=N)N)C(=O)N[C@@H](Cc4ccc(O)cc4)C(N)=O)[C@@H](C)O)C(C)C)c(=O)c3c2)CC1)[C@@H](C)CC)C(=O)O)C(=O)O` [Example 59], the EC50 is > 9000 nM on Y1R; > 9000 nM at Y4R; 3880 nM at Y5R; 0.29 nM on hNPY2R [1]; 0.285 nM at hNPY2R [2].
For `CCCCCCCCCCCCCCCCCCCC(=O)N[C@@H](CCC(=O)N[C@@H](CCC(=O)N[C@H](C(=O)N[C@@H](CCCCNC(=O)CCOCCOCCOCCOCCOCCOCCOCCOCCOCCOCCOCCOCCOCCOCCOCCOCCOCCOCCOCCOCCOCCOCCOCCOC)C(=O)N1CCN(c2ccc3ncn(CC(=O)N[C@@H](CCCNC(=N)N)C(=O)N[C@@H](Cc4c[nH]cn4)C(=O)N[C@@H](Cc4ccc(O)cc4)C(=O)N[C@@H](CC(C)C)C(=O)N[C@@H](CC(N)=O)C(=O)N[C@@H](Cc4c[nH]c5ccccc45)C(=O)N[C@H](C(=O)N[C@H](C(=O)N[C@@H](CCCNC(=N)N)C(=O)N[C@@H](CCC(N)=O)C(=O)N(C)[C@@H](CCCNC(=N)N)C(=O)N[C@@H](Cc4ccc(O)cc4)C(N)=O)[C@@H](C)O)C(C)C)c(=O)c3c2)CC1)[C@@H](C)CC)C(=O)O)C(=O)O` [Example 60], the 50% effective concentration (EC50) at Y1R was > 9000 nM; at Y4R it was > 9000 nM; on Y5R, 2600 nM; on hNPY2R [1], 0.29 nM; at hNPY2R [2], 0.18 nM.
As for `CCCCCCCCCCCCCCCCCCCC(=O)N[C@@H](CCC(=O)N[C@@H](CCC(=O)N[C@H](C(=O)N[C@@H](CCCCNC(=O)CCOCCOCCOCCOCCOCCOCCOCCOCCOCCOCCOCCOCCOCCOCCOCCOCCOCCOCCOCCOCCOCCOCCOCCOC)C(=O)N1CCN(c2ccc3ncn(CC(=O)N[C@@H](CCCNC(N)=O)C(=O)N[C@@H](Cc4c[nH]cn4)C(=O)N[C@@H](Cc4ccc(O)cc4)C(=O)N[C@@H](CC(C)C)C(=O)N[C@@H](CC(N)=O)C(=O)N[C@@H](Cc4c[nH]c5ccccc45)C(=O)N[C@H](C(=O)N[C@H](C(=O)N[C@@H](CCCNC(=N)N)C(=O)N[C@@H](CCC(N)=O)C(=O)N(C)[C@@H](CCCNC(=N)N)C(=O)N[C@@H](Cc4ccc(O)cc4)C(N)=O)[C@@H](C)O)C(C)C)c(=O)c3c2)CC1)[C@@H](C)CC)C(=O)O)C(=O)O` [Example 61], the EC50 at Y1R was > 6000 nM; on Y4R, > 6000 nM; on Y5R, > 6000 nM; on hNPY2R [1], 0.28 nM; at hNPY2R [2] it was 0.243 nM.

The term EC50 denotes the concentration that produces a half-maximal response. Read a low EC50 as higher potency in that assay.

Source of the values: patent US20110172147A1, “NEUROPEPTIDE-2 RECEPTOR (Y-2R) AGONISTS” (priority 2009, published 2011).
